Measured values reported in patent US11840497B2, “4-(p-quinonyl)-2-hydroxybutanamide derivatives for treatment of mitochondrial diseases” (PTC Therapeutics, Inc., priority 2007, dated 2023).

Columns and labels:
Type in all cases: cell-based
[1] = system: human dermal fibroblasts from Parkinson's Disease patients; assay: Rescue of BSO-stressed fibroblasts from Parkinson's Disease patients (Example D); settings: Fibroblast, PD fibroblasts AG20439, screen as Example A, read-out: protection against PD, EC50
Protocol: The compounds were tested for their ability to rescue human dermal fibroblasts from Parkinson's Disease patients from oxidative stress.

[2] = system: Human dermal fibroblasts from Friedreich's Ataxia patients; assay: Rescue of BSO-stressed FRDA fibroblasts (Example A); settings: FRDA fibroblasts GM04078, 1 mM BSO, read-out: protection against FRDA, EC50
Protocol: Test samples, 4 reference compounds (idebenone, decylubiquinone, Trolox and α-tocopherol acetate), and solvent controls were tested for their ability to rescue FRDA fibroblasts stressed by addition of L-buthionine (S,R)-sulfoximine (BSO), as described in Jauslin et al., Hum. Mol. Genet. […] Mol. Genet. […] This specific BSO-mediated cell death can be prevented by administration of antioxidants or molecules involved in the antioxidant pathway, such as α-tocopherol, selenium, or small molecule glutathione peroxidase mimetics. However, antioxidants differ in their potency, i.e. the concentration at which they are able to rescue BSO-stressed FRDA fibroblasts.
Fetal Calf Serum was obtained from PAA Laboratories. Basic fibroblast growth factor and epidermal growth factor were purchased from PeproTech. Penicillin-streptomycin-glutamine mix, L-buthionine (S,R)-sulfoximine, (+)-α-tocopherol acetate, decylubiquinone, and insulin from bovine pancreas were purchased from Sigma. Trolox (6-Hydroxy-2,5,7,8-tetramethylchroman-2-carboxylic acid) was obtained from Fluka. Idebenone was obtained from Chemo Iberica. Calcein AM was purchased from Molecular Probes. Cell culture medium was made by combining 125 ml M199 EBS, 50 ml Fetal Calf Serum, 100 U/ml penicillin, 100 μg/ml streptomycin, 2 mM glutamine, 10 μg/ml insulin, 10 ng/ml EGF, and 10 ng/ml bFGF; MEM EBS was added to make the volume up to 500 ml. […] During the course of the experiments, this solution was stored at +4° C. The cells were obtained from the Coriell Cell Repositories (Camden, NJ; repository number GM04078) and grown in 10 cm tissue culture plates. Every third day, they were split at a 1:3 ratio.
The test samples were supplied in 1.5 ml glass vials. […] Once dissolved, they were stored at −20° C. Reference antioxidants (idebenone, decylubiquinone, α-tocopherol acetate and trolox) were dissolved in DMSO.
Test samples were screened according to the following protocol: A culture with FRDA fibroblasts was started from a 1 ml vial with approximately 500,000 cells stored in liquid nitrogen. […] Once confluent, fibroblasts were harvested. […] The remaining cells were distributed in 10 cm cell culture plates (500,000 cells/plate) for propagation. The plates were incubated overnight at 37° C. in a atmosphere with 95% humidity and 5% CO2 to allow attachment of the cells to the culture plate.
MTP medium (243 μl) was added to a well of the microtiter plate. […] Serial dilutions from the master solution were made. The period between the single dilution steps was kept as short as possible (generally less than 1 second).
Plates were kept overnight in the cell culture incubator. The next day, 10 μl of a 10 mM BSO solution were added to the wells, resulting in a 1 mM final BSO concentration. Forty-eight hours later, three plates were examined under a phase-contrast microscope to verify that the cells in the 0% control (wells E1-H1) were clearly dead. The medium from all plates was discarded, and the remaining liquid was removed by gently tapping the plate inversed onto a paper towel.
The plates were incubated for 50-70 minutes at room temperature. After that time the PBS was discarded, the plate gently tapped on a paper towel and fluorescence (excitation/emission wavelengths of 485 nm and 525 nm, respectively) was read on a Gemini fluorescence reader. Data was imported into Microsoft Excel (EXCEL is a registered trademark of Microsoft Corporation for a spreadsheet program) and used to calculate the EC50 concentration for each compound.
The compounds were tested three times, i.e., the experiment was performed three times, the passage number of the cells increasing by one with every repetition.
The viability of non-BSO treated fibroblasts was set as 100%, and the viability of the BSO- and compound-treated cells was calculated as relative to this value.

[3] = system: human dermal fibroblasts from Huntington's patients; assay: Rescue of BSO-stressed fibroblasts from Huntington's patients (Example B); settings: Fibroblast, Huntington's fibroblasts GM 04281, screen as Example A, read-out: protection against Hungtington's, EC50
Protocol: The compounds were tested for their ability to rescue human dermal fibroblasts from Huntington's patients from oxidative stress.

[4] = system: human dermal fibroblasts from LHON patients; assay: Rescue of BSO-stressed fibroblasts from LHON patients (Example C); settings: Fibroblast, LHON fibroblasts GM03858, screen as Example A, read-out: protection against LHON, EC50
Protocol: The compounds were tested for their ability to rescue human dermal fibroblasts from LHON patients from oxidative stress.

[5] = system: human dermal fibroblasts from CoQ10 deficient patients; assay: Rescue of stressed fibroblasts from CoQ10 deficient patients (Example E); settings: Fibroblast, fibroblasts harboring a CoQ2 mutation, screen similar to Example A, read-out: protection against CoQ10 deficiency, EC50
Protocol: Compounds of the invention were tested using a screen similar to the one described in Example A, but substituting FRDA cells with cells obtained from CoQ10 deficient patients harboring a CoQ2 mutation.

Row | SMILES | EC50 [1] [µM] | EC50 [2] [µM] | EC50 [3] [µM] | EC50 [4] [µM] | EC50 [5] [µM]
1 | CC1=C(C)C(=O)C(CCC(C)(O)C(=O)NCCCn2ccnc2)=C(C)C1=O (stereo not drawn) [Example 23, N-(3-(1H-imidazol-1-yl)propyl)-2-hydroxy-2-methyl-4-(2,4,5-trimethyl-3,6-dioxocyclohexa-1,4-dienyl)butanamide] | < 0.1 | < 0.1 | < 0.1 | – | –
2 | CC1=C(C)C(=O)C(CCC(C)(O)C(=O)NCCc2ccc(Cl)cc2)=C(C)C1=O (stereo not drawn) [N-(4-chlorophenethyl)-2-hydroxy-2-methyl-4-(2,4,5-trimethyl-3,6-dioxocyclohexa-1,4-dienyl)butanamide] | – | < 0.1 | < 0.1 | < 0.1 | < 0.1
3 | CC1=C(C)C(=O)C(CC[C@@](C)(O)C(=O)NCCO)=C(C)C1=O [Example 24, (R)-2-Hydroxy-N-(2-hydroxyethyl)-2-methyl-4-(2,4,5-trimethyl-3,6-dioxocyclohexa-1,4-dienyl)butanamide] | < 0.1 | < 0.1 | < 0.1 | – | –
4 | CC1=C(C)C(=O)C(CCC(C)(O)C(=O)NCc2ccc(Cl)cc2)=C(C)C1=O (stereo not drawn) [N-(4-chlorobenzyl)-2-hydroxy-2-methyl-4-(2,4,5-trimethyl-3,6-dioxocyclohexa-1,4-dienyl)butanamide] | – | < 0.1 | < 0.1 | < 0.1 | –
5 | CCCCCCNC(=O)C(C)(O)CCC1=C(C)C(=O)C(C)=C(C)C1=O (stereo not drawn) [Example 43, N-hexyl-2-hydroxy-2-methyl-4-(2,4,5-trimethyl-3,6-dioxocyclohexa-1,4-dienyl)butanamide] | – | – | – | < 0.1 | < 0.1
6 | CC1=C(C)C(=O)C(CCC(C)(O)C(=O)NC(C)C)=C(C)C1=O (stereo not drawn) [2-hydroxy-N-isopropyl-2-methyl-4-(2,4,5-trimethyl-3,6-dioxocyclohexa-1,4-dienyl)butanamide] | < 0.1 | – | – | – | –
7 | CC1=C(C)C(=O)C(CCC(C)(O)C(=O)Nc2ccc(Cl)cc2)=C(C)C1=O (stereo not drawn) [N-(4-chlorophenyl)-2-hydroxy-2-methyl-4-(2,4,5-trimethyl-3,6-dioxocyclohexa-1,4-dienyl)butanamide] | – | < 0.1 | < 0.1 | < 0.1 | –
8 | CC1=C(C)C(=O)C(CCC(C)(O)C(=O)NC(C)CO)=C(C)C1=O (stereo not drawn) [Example 19, 2-Hydroxy-N-(1-hydroxypropan-2-yl)-2-methyl-4-(2,4,5-trimethyl-3,6-dioxocyclohexa-1,4-dienyl)butanamide] | – | < 0.1 | < 0.1 | < 0.1 | –
9 | CC1=C(C)C(=O)C(CCC(C)(O)C(=O)N2CCN(C(=O)OC(C)(C)C)CC2)=C(C)C1=O (stereo not drawn) [tert-butyl 4-(2-hydroxy-2-methyl-4-(2,4,5-trimethyl-3,6-dioxocyclohexa-1,4-dienyl)butanoyl)piperazine-1-carboxylate] | – | – | – | – | < 0.1
10 | CC(=O)N1CCN(C(=O)[C@](C)(O)CCC2=C(C)C(=O)C(C)=C(C)C2=O)CC1 [(R)-2-(4-(4-acetylpiperazin-1-yl)-3-hydroxy-3-methyl-4-oxobutyl)-3,5,6-trimethylcyclohexa-2,5-diene-1,4-dione] | – | < 0.1 | < 0.1 | < 0.1 | –
11 | CC1=C(C)C(=O)C(CCC(C)(O)C(=O)NCCc2ccccc2Cl)=C(C)C1=O (stereo not drawn) [N-(2-chlorophenethyl)-2-hydroxy-2-methyl-4-(2,4,5-trimethyl-3,6-dioxocyclohexa-1,4-dienyl)butanamide] | – | < 0.1 | – | – | < 0.1
12 | CC1=C(C)C(=O)C(CCC(C)(O)C(=O)Nc2ccc(F)cc2)=C(C)C1=O (stereo not drawn) [N-(4-fluorophenyl)-2-hydroxy-2-methyl-4-(2,4,5-trimethyl-3,6-dioxocyclohexa-1,4-dienyl)butanamide] | – | < 0.1 | < 0.1 | < 0.1 | < 0.1
13 | CC1=C(C)C(=O)C(CC[C@](C)(O)C(N)=O)=C(C)C1=O [(S)-2-hydroxy-2-methyl-4-(2,4,5-trimethyl-3,6-dioxocyclohexa-1,4-dienyl)butanamide] | – | < 0.1 | < 0.1 | < 0.1 | < 0.1
14 | CC1=C(C)C(=O)C(CCC(C)(O)C(=O)NCc2cccnc2)=C(C)C1=O (stereo not drawn) [2-hydroxy-2-methyl-N-(pyridin-3-ylmethyl)-4-(2,4,5-trimethyl-3,6-dioxocyclohexa-1,4-dienyl)butanamide] | – | – | – | < 0.1 | < 0.1
15 | CC1=C(C)C(=O)C(CCC(C)(O)C(=O)NCCc2ccc(F)cc2)=C(C)C1=O (stereo not drawn) [N-(4-fluorophenethyl)-2-hydroxy-2-methyl-4-(2,4,5-trimethyl-3,6-dioxocyclohexa-1,4-dienyl)butanamide] | – | < 0.1 | < 0.1 | < 0.1 | –
16 | CC(=O)N1CCN(C(=O)C(C)(O)CCC2=C(C)C(=O)C(C)=C(C)C2=O)CC1 (stereo not drawn) [2-(4-(4-acetylpiperazin-1-yl)-3-hydroxy-3-methyl-4-oxobutyl)-3,5,6-trimethylcyclohexa-2,5-diene-1,4-dione] | – | < 0.1 | < 0.1 | < 0.1 | < 0.1
17 | CC1=C(C)C(=O)C(CCC(C)(O)C(=O)NCc2ccccc2Cl)=C(C)C1=O (stereo not drawn) [N-(2-chlorobenzyl)-2-hydroxy-2-methyl-4-(2,4,5-trimethyl-3,6-dioxocyclohexa-1,4-dienyl)butanamide] | – | < 0.1 | < 0.1 | < 0.1 | –
18 | CC1=C(C)C(=O)C(CCC(C)(O)C(=O)N2CCNCC2)=C(C)C1=O (stereo not drawn) [2-(3-hydroxy-3-methyl-4-oxo-4-(piperazin-1-yl)butyl)-3,5,6-trimethylcyclohexa-2,5-diene-1,4-dione] | – | < 0.1 | – | – | < 0.1
19 | CC1=C(C)C(=O)C(CCC(C)(O)C(=O)NCc2cccc(F)c2)=C(C)C1=O (stereo not drawn) [N-(3-fluorobenzyl)-2-hydroxy-2-methyl-4-(2,4,5-trimethyl-3,6-dioxocyclohexa-1,4-dienyl)butanamide] | – | < 0.1 | < 0.1 | < 0.1 | –
20 | CC1=C(C)C(=O)C(CCC(C)(O)C(=O)NCCc2cccc(Cl)c2)=C(C)C1=O (stereo not drawn) [N-(3-chlorophenethyl)-2-hydroxy-2-methyl-4-(2,4,5-trimethyl-3,6-dioxocyclohexa-1,4-dienyl)butanamide] | – | < 0.1 | < 0.1 | < 0.1 | –
21 | CC1=C(C)C(=O)C(CCC(C)(O)C(N)=O)=C(C)C1=O (stereo not drawn) [Example 16, 2-Hydroxy-2-methyl-4-(2,4,5-trimethyl-3,6-dioxocyclohexa-1,4-dienyl)butanamide] | – | < 0.1 | < 0.1 | < 0.1 | < 0.1
22 | CC1=C(C)C(=O)C(CCC(C)(O)C(=O)NCc2ccccc2F)=C(C)C1=O (stereo not drawn) [N-(2-fluorobenzyl)-2-hydroxy-2-methyl-4-(2,4,5-trimethyl-3,6-dioxocyclohexa-1,4-dienyl)butanamide] | – | < 0.1 | < 0.1 | < 0.1 | –
23 | CC1=C(C)C(=O)C(CCC(C)(O)C(=O)NCCCCO)=C(C)C1=O (stereo not drawn) [Example 17, 2-Hydroxy-N-(4-hydroxybutyl)-2-methyl-4-(2,4,5-trimethyl-3,6-dioxocyclohexa-1,4-dienyl)butanamide] | – | < 0.1 | < 0.1 | < 0.1 | –
